According to PMC5485575, “Arginine kinase from Haemonchus contortus decreased the proliferation and increased the apoptosis of goat PBMCs in vitro” (Parasites & Vectors, 2017):

Target: T1, rHc-AK (Haemonchus contortus, UniProt K0DG62)
T1 construct: E. coli BL21(DE3), Ni-NTA
Assay: fluorimetric ADP formation assay (Universal Fluorimetric Kinase Assay kit)
Format: biochemical
Conditions: room temperature, 30 min; 0-10 ug enzyme; substrates of the kinase reaction solution not named

T1 sequence (K0DG62 entry or part of it): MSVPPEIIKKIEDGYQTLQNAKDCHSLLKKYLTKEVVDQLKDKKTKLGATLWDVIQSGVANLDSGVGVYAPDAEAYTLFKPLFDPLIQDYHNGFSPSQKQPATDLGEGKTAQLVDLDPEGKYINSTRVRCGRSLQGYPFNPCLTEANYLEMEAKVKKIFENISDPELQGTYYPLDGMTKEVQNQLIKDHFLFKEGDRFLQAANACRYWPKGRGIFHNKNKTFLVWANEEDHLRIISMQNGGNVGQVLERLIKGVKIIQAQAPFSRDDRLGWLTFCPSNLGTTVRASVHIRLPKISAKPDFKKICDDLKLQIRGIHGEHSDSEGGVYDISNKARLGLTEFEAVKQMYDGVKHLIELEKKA

Compound: Nc1ncnc2c1ncn2[C@@H]1O[C@H](COP(=O)(O)OP(=O)(O)O)[C@@H](O)[C@H]1O [ADP]
- fluorimetric ADP formation assay (Universal Fluorimetric Kinase Assay kit): results showed a remarkable augmentation in ADP generation with increased period
